Source: patent publication EP0778025A1, “Use of 8,9-dehydroestrone for the manufacture of a medicament for the treatment of diseases caused by free radicals” (AMERICAN HOME PRODUCTS CORPORATION, priority 1995, dated 1997)
Read-outs that look alike come from different tables or passages of the source.

Legend:
[1] = test system: porcine aortic endothelial cells (PAEC); assay: MTT cytotoxicity assay of porcine aortic endothelial cells exposed to Cu++-treated LDL; type: cell-based; conditions: 25 ug/ml LDL Cu++ treated in presence of compound (2.5µM stated for 8,9-dehydroestrone), 24 hr incubation, 2% viable without compound
Experimental: In the second test procedure, porcine aortic endothelial cells (PAEC) were exposed to LDL that had been modified as above, by exposure to Cu++ in the presence and absence of 8,9-dehydroestrone. […] Subsequent to a 24 hr incubation of the cells with the treated LDL, an MTT assay was performed to assess cytotoxicity (Hansen MB, J Immu Methods 119:203-210 (1989)). This test procedure assesses the percent of cells that are viable (live) in a given assay. In the assay, following exposure to 25 ug/ml LDL oxidized in the absence of compound, only 2% of the cells remained viable. In contrast, the percent live cells following exposure to LDL Cu++ treated in the presence of 8,9-dehydroestrone (2.5µM) was 100% or greater.

J774 macrophages = assay: Binding of Cu++-treated 125I-LDL to J774 macrophages (scavenger lipoprotein receptors); type: cell-based; conditions: Mus musculus
From the text: In the first test procedure, radiolabeled-LDL (^125I-LDL) (McFarlane AS, In: Munro HN, Allison JB, eds. Mammalian Protein metabolism, Vol. 1. New York: Academic Press 297-341 (1964)) was modified by exposure to Cu++ in the presence and absence of 8,9-dehydroestrone. Next, J774 macrophages, which express scavenger lipoprotein receptors which bind oxidatively modified-LDL, were exposed to the treated ^125I-LDL. […] By comparison, the same concentrations of estrone reduced the binding of LDL that was oxidized by 39% and 0%, respectively. Since binding and metabolism of oxidized LDL by macrophages is though to contribute strongly to the development of foam cells and therefore, atherosclerotic plaque, this effect of reducing LDL oxidation and subsequent binding to scavenger receptors is thought to be of significant benefit.

[2] = test system: low density lipoprotein (LDL); assay: Inhibition of Cu++ mediated LDL oxidation (TBARS method)
[3] = J774, read-out: reduction of binding of the LDL that was oxidized

Compound | percent live cells [1] [%] | inhibition at 0.25 µM (J774 macrophages; [3]) [%] | inhibition at 2.5 µM (J774 macrophages; [3]) [%] | IC50 ([2]; Cu++ mediated LDL oxidation, TBARS) [nM] | inhibition of LDL oxidation ([2]; maximal inhibition, stated for the test procedure in general (Cu++ or endothelial cell induced)) [%] | inhibition at 0.25 µM (J774 macrophages; 0.25 µM compound present during Cu++ oxidation of 125I-LDL, J774 macrophages, read-out: reduction of binding of the LDL that was oxidized) [%] | inhibition at 2.5 µM (J774 macrophages; 2.5 µM compound present during Cu++ oxidation of 125I-LDL, J774 macrophages, read-out: reduction of binding of the LDL that was oxidized) [%]
C[C@]12CCC3=C(CCc4cc(O)ccc43)[C@@H]1CCC2=O [8,9-dehydroestrone] | ≥ 100 | 56 | 72 | 220 | ≤ 100 |  | 
C[C@]12CC[C@H]3C(=CCc4cc(O)ccc43)[C@@H]1CCC2=O [Equilin, reference compound] | 4 |  |  |  |  |  | 
C[C@]12CC[C@@H]3c4ccc(O)cc4CC[C@H]3[C@@H]1CCC2=O [estrone] |  |  |  |  |  | 0 | 39
